Data published in US8486693B2, “Modified dendritic cells having enhanced survival and immunogenicity and related compositions and methods” (Bellicum Pharmaceuticals, Inc., priority 2006, dated 2013).

B1: Akt.KM: kinase-dead mutant (K179M) chimeric Akt (protein, UniProt P31750 1-480, looked up, variant K179M)
RAC-alpha …: MNDVAIVKEGWLHKRGEYIKTWRPRYFLLKNDGTFIGYKERPQDVDQRESPLNNFSVAQCQLMKTERPRPNTFIIRCLQWTTVIERTFHVETPEEREEWATAIQTVADGLKRQEEETMDFRSGSPSDNSGAEEMEVSLAKPKHRVTMNEFEYLKLLGKGTFGKVILVKEKATGRYYAMMILKKEVIVAKDEVAHTLTENRVLQNSRHPFLTALKYSFQTHDRLCFVMEYANGGELFFHLSRERVFSEDRARFYGAEIVSALDYLHSEKNVVYRDLKLENLMLDKDGHIKITDFGLCKEGIKDGATMKTFCGTPEYLAPEVLEDNDYGRAVDWWGLGVVMYEMMCGRLPFYNQDHEKLFELILMEEIRFPRTLGPEAKSLLSGLLKKDPTQRLGGGSEDAKEIMQHRFFANIVWQDVYEKKLSPPFKPQVTSETDTRYFDEEFTAQMITITPPDQDDSMECVDSERRPHFPQFSYSASGTA
modifications: chimeric

System: NF-.kappa.B
Test: NF-.kappa.B/SEAP reporter assay in Jurkat-TAg cells (Example 10, iAkt)
Type: cell-based, human
Method: Jurkat-TAg cells in logarithmic-phase growth were electroporated ([…], 250 V; Gene Pulser II (BIO-RAD)) with expression plasmids and the NF-.kappa.B-SEAP reporter plasmid. After 24 hours, transfected cells were stimulated with sub-optimal levels of the phorbol ester PMA (5 ng/ml) along with log dilutions of the heterodimerizing CID, AP22783, and additional treatments. After an additional 24 hours, supernatants were assayed for SEAP activity.
Two key requirements for efficient synthetic regulation of a biological event are highly specific conditional dependency and low background. […] Therefore, in order to optimize iAkt, an NF-.kappa.B-responsive secreted alkaline phosphatase (SEAP) reporter plasmid was used as an assay for Akt activation.
Briefly, the human T cell line, Jurkat-TAg, was cotransfected with reporter plasmid, NF-.kappa.B/SEAP, along with constitutively active M-Akt expression vector or empty control vector. Twenty-four hours after transfection, cells were divided into aliquots that were stimulated with sub-optimal levels (5 ng/ml) of the phorbol ester, PMA, or were untreated. After an additional 24 hours, SEAP activity was measured. Although Akt activity alone was insufficient to induce measurable NF-.kappa.B activity, M-Akt expression potentiated (by 3-4 fold) PKC-induced NF-.kappa.B activity, consistent with multiple reports. […]

| Molecule | NF-.kappa.B activation by M-Akt plus PKC in presence of inhibitor (LY294002 5 μM, wortmannin 1 μM, R0318220 1 μM) | NF-.kappa.B induction on CID (AP22783)-mediated membrane recruitment via M-FRB12 (5 ng/ml PMA, log dilutions of AP22783) |
| --- | --- | --- |
| Cn1cc(C2=C(c3cn(CCCSC(=N)N)c4ccccc34)C(=O)NC2=O)c2ccccc21 [R0318220] | complete inhibition of NF-.kappa.B |  |
| B1 |  | no detectable effect on NF-.kappa.B induction over PMA alone |
